Results on 54 molecules are retold here after patent US12583858B2 (Genentech, Inc., priority 2015, dated 2026).

One may read the EC50 as the concentration at which the effect is half-maximal.

The target of the assay is T1, TDO2 (Homo sapiens, UniProt P48775).
T1 construct: decreased levels of NFK in SW48 cells (high TDO expressing cells)
T1 sequence (P48775 whole entry): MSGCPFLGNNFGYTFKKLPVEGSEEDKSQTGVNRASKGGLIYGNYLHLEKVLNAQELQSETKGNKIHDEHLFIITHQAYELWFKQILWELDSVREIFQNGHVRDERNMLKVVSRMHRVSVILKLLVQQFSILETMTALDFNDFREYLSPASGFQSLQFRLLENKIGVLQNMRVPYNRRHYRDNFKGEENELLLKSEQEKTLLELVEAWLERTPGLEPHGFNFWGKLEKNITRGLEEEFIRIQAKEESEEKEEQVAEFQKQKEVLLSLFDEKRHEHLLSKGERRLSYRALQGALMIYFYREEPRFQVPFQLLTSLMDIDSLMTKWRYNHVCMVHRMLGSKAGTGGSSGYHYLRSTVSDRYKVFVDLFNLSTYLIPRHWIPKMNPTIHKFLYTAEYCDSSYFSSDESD
As to the kind of experiment: TDO2 cell assay (NFK GreenScreen, SW48 cells). In kind it is cell-based. Particulars: SW48 cells (high TDO expressing), 200 uM tryptophan, 24 hours; Table 3; read-out: TDO2 Cell Fluor EC50.
With `NC(=O)c1nc2c(s1)CCC(C1c3ccccc3-c3cncn31)C2O` (single isomer, unassigned) [Example 149e], the concentration giving a half-maximal response (EC50) is 1.4 µM.

In the case of `CCS(=O)(=O)N1CC(O)(CC2c3ccccc3-c3cncn32)C1` (single isomer, unassigned) [Example 108a], the EC50 was 2.8 µM.

Turning to `NC(=O)c1nc2c(s1)CCC(C1c3ccccc3-c3cncn31)C2O` (single isomer, unassigned) [Example 149c], the EC50 was 0.15 µM.

On to `Nc1cc2n(n1)CCC(C1c3ccccc3-c3cncn31)C2O` (single isomer, unassigned) [Example 161g], for which the EC50 was > 25 µM.

Take `Cn1cc2c(n1)CCC(C1c3ccccc3-c3cncn31)C2O` (single isomer, unassigned) [Example 130f]: the EC50 was determined as 1.2 µM.

As for `CC(C)S(=O)(=O)N1CCC(C2c3ccccc3-c3cncn32)C(O)C1` (single isomer, unassigned) [Example 89b], the EC50 was > 25 µM.

With `O[C@H]1c2ncccc2CC[C@H]1[C@H]1c2ccccc2-c2cncn21` [Example 63c, (7S,8R)-7-((S)-5H-imidazo[5,1-a]isoindol-5-yl)-5,6,7,8-tetrahydroquinolin-8-ol], the EC50 worked out at 20 µM.

For `OC1c2[nH]ncc2CCC1C1c2ccccc2-c2cncn21` (single isomer, unassigned) [Example 157c], the concentration giving a half-maximal response (EC50) was 14 µM.

Take `O[C@H]1COCC[C@H]1[C@H]1c2ccccc2-c2cncn21` [Example 06f, (3R,4S)-4-((S)-5H-imidazo[5,1-a]isoindol-5-yl)tetrahydro-2H-pyran-3-ol]: the EC50 stood at 0.9 µM.

In the case of `O[C@H]1[C@@H]([C@@H]2c3ccccc3-c3cncn32)CCC12CCOCC2` [Example 68a, (1S,2R)-2-((R)-5H-imidazo[5,1-a]isoindol-5-yl)-8-oxaspiro[4.5]decan-1-ol], the EC50 worked out at 6.8 µM.

In the case of `OCC(O)C1c2ccccc2-c2cncn21` (single isomer, unassigned) [Example 49a, 1-(5H-imidazo[5,1-a]isoindol-5-yl)ethane-1,2-diol], the concentration for a half-maximal effect (EC50) worked out at 18 µM.

Turning to `NS(=O)(=O)N1CC(O)C(C2c3ccccc3-c3cncn32)C1` (single isomer, unassigned) [Example 28a], the EC50 was > 25 µM.

In the case of `CC1(C)CCCC(C2c3ccccc3-c3cncn32)C1O` (single isomer, unassigned) [Example 24d], the EC50 came out at 1.1 µM.

For the molecule `CC(=O)N1CC[C@H](O)[C@@H]([C@H]2c3ccccc3-c3cncn32)C1` (single isomer, unassigned) [Example 12c], the 50% effective concentration (EC50) is > 25 µM.

For `O=c1cccc2n1CCC(C1c3ccccc3-c3cncn31)C2O` (single isomer, unassigned) [Example 29a, 1-hydroxy-2-(5H-imidazo[5,1-a]isoindol-5-yl)-3,4-dihydro-1H-quinolizin-6(2H)-one], the concentration for a half-maximal effect (EC50) was > 25 µM.

In the case of `CC1(C)COC[C@@H]([C@H]2c3ccccc3-c3cncn32)[C@H]1O` [Example 66a, (4R,5R)-5-((S)-5H-imidazo[5,1-a]isoindol-5-yl)-3,3-dimethyltetrahydro-2H-pyran-4-ol], the EC50 is > 25 µM.

For `OC1CCCOCC1C1c2ccccc2-c2cncn21` (single isomer, unassigned) [Example 86d], the concentration giving a half-maximal response (EC50) was 0.14 µM.

`CC1(C)CCC(C2c3ccccc3-c3cncn32)C1O` (single isomer, unassigned) [Example 23e]: the EC50 came to 17 µM.

With `OC1COCC1C1c2ccccc2-c2cncn21` (single isomer, unassigned) [Example 26d], the EC50 is > 25 µM.

For `CCS(=O)(=O)N1CCC2(CCC(C3c4ccccc4-c4cncn43)C2O)CC1` (single isomer, unassigned) [Example 76d], the concentration giving a half-maximal response (EC50) was 15 µM.

As for `OC1c2cnccc2CC1C1c2ccccc2-c2cncn21` (single isomer, unassigned) [Example 71aa], the EC50 is > 25 µM.

`O[C@H]1CCCC[C@@H]1[C@@H]1c2ccccc2-c2cncn21` [Example 03g, (1S,2R)-2-((R)-5H-imidazo[5,1-a]isoindol-5-yl)cyclohexan-1-ol]: the EC50 was 7.6 µM.

For the molecule `CC1(C)C[C@@H](O)[C@H]1[C@H]1c2ccccc2-c2cncn21` (single isomer, unassigned) [Example 22g], the EC50 turned out to be 0.78 µM.

Turning to `O[C@@H]1c2ccccc2CC[C@H]1[C@@H]1c2ccccc2-c2cncn21` (single isomer, unassigned) [Example 102h], the concentration giving a half-maximal response (EC50) was 8.4 µM.

For the molecule `CCS(=O)(=O)N1CC(O)C(C2c3ccccc3-c3cncn32)C1` (single isomer, unassigned) [Example 40b], the concentration giving a half-maximal response (EC50) was found to be 16 µM.

On to `OC1COCC1C1c2ccc(F)cc2-c2cncn21` (single isomer, unassigned) [Example 30b], for which the half-maximal effective concentration (EC50) stood at 15 µM.

For `OC1c2cccnc2CCC1C1c2ccc(F)cc2-c2cncn21` (single isomer, unassigned) [Example 169a], the EC50 is 0.21 µM.

As to `N#Cc1ccc2c(c1)CCC(C1c3ccccc3-c3cncn31)C2O` (single isomer, unassigned) [Example 62b], the EC50 was found to be 0.31 µM.

For the molecule `OCC(O)C1c2ccccc2-c2cncn21` (single isomer, unassigned) [Example 49c, 1-(5H-imidazo[5,1-a]isoindol-5-yl)ethane-1,2-diol], the EC50 was > 25 µM.

On to `OC1c2ccnn2CCC1C1c2ccccc2-c2cncn21` (single isomer, unassigned) [Example 56g], for which the EC50 was > 25 µM.

With `O[C@H]1c2ccnn2CC[C@@H]1[C@@H]1c2ccccc2-c2cncn21` [Example 56d, (4R,5R)-5-((R)-5H-imidazo[5,1-a]isoindol-5-yl)-4,5,6,7-tetrahydropyrazolo[1,5-a]pyridin-4-ol], the EC50 is > 25 µM.

With `OC1CC2(CC2)C1C1c2ccccc2-c2cncn21` (single isomer, unassigned) [Example 72b], the half-maximal effective concentration (EC50) worked out at 0.65 µM.

For the molecule `CC1(C)CC(O)C1C1c2ccccc2-c2cncn21` (single isomer, unassigned) [Example 22h], the half-maximal effective concentration (EC50) turned out to be 0.4 µM.

For `OC1c2nonc2CCC1C1c2ccccc2-c2cncn21` (single isomer, unassigned) [Example 163e], the EC50 was 6.1 µM.

Regarding `CS(=O)(=O)c1ccc2c(c1)OCC(C1c3ccccc3-c3cncn31)C2O` (single isomer, unassigned) [Example 91a], the concentration for a half-maximal effect (EC50) was determined as 2.8 µM.

Take `Cn1cc2c(n1)CCC(C1c3ccccc3-c3cncn31)C2O` (single isomer, unassigned) [Example 130c]: the EC50 was > 25 µM.

With `NC(=O)c1ccc2c(n1)CCC(C1c3ccccc3-c3cncn31)C2O` (single isomer, unassigned) [Example 104b], the EC50 was 0.2 µM.

For the molecule `NS(=O)(=O)N1CC[C@@H]([C@@H]2c3ccccc3-c3cncn32)[C@H](O)C1` (single isomer, unassigned) [Example 39d], the concentration giving a half-maximal response (EC50) worked out at 0.056 µM.

`N#CCN1CC[C@H]([C@H]2c3ccccc3-c3cncn32)[C@@H](O)C1` [Example 27c, 2-((3R,4R)-3-hydroxy-4-((S)-5H-imidazo[5,1-a]isoindol-5-yl)piperidin-1-yl)acetonitrile]: the EC50 was > 25 µM.

With `CCS(=O)(=O)N1CCC(O)C(C2c3ccccc3-c3cncn32)C1` (single isomer, unassigned) [Example 15a], the half-maximal effective concentration (EC50) is > 25 µM.

Consider `O=c1cccc2n1CCC(C1c3ccccc3-c3cncn31)C2O` (single isomer, unassigned) [Example 29c, 1-hydroxy-2-(5H-imidazo[5,1-a]isoindol-5-yl)-3,4-dihydro-1H-quinolizin-6(2H)-one], for which the 50% effective concentration (EC50) was 24 µM.

`OC(c1ccncc1)C1c2ccccc2-c2cncn21` (single isomer, unassigned) [Example 152a]: the concentration giving a half-maximal response (EC50) stood at 14 µM.

Take `CN(C)C(=O)c1ccc2c(c1)CCC(C1c3ccccc3-c3cncn31)C2O` (single isomer, unassigned) [Example 98c]: the EC50 stood at 0.18 µM.

As to `O[C@@H](C1CCCCC1)[C@H]1c2ccccc2-c2cncn21` [Example 148b, (S)-cyclohexyl((R)-5H-imidazo[5,1-a]isoindol-5-yl)methanol], the EC50 amounted to 16 µM.

With `O[C@H]1c2cccnc2CC[C@H]1[C@H]1c2ccccc2-c2cncn21` [Example 31h, (5R,6S)-6-((S)-5H-imidazo[5,1-a]isoindol-5-yl)-5,6,7,8-tetrahydroquinolin-5-ol], the concentration giving a half-maximal response (EC50) was 0.12 µM.

For the molecule `O[C@H]1[C@H]([C@@H]2c3ccccc3-c3cncn32)CCCC1(F)F` (single isomer, unassigned) [Example 106c], the EC50 worked out at 8.1 µM.

On to `O[C@@H]1CCC[C@@H]1[C@@H]1c2ccccc2-c2cncn21` [Example 02a, (1R,2R)-2-((R)-5H-imidazo[5,1-a]isoindol-5-yl)cyclopentan-1-ol], for which the EC50 came out at 12 µM.

As to `N#CC1(C(O)C2c3ccccc3-c3cncn32)CC1` (single isomer, unassigned) [Example 153a], the EC50 worked out at 0.62 µM.

As to `O[C@H]1CC(CF)(CF)[C@H]1[C@@H]1c2ccccc2-c2cncn21` [Example 150c, (1S,2S)-3,3-bis(fluoromethyl)-2-((R)-5H-imidazo[5,1-a]isoindol-5-yl)cyclobutan-1-ol], the EC50 was 0.11 µM.

Regarding `CS(=O)(=O)c1ccc2c(c1)[C@@H](O)[C@H]([C@H]1c3ccccc3-c3cncn31)CC2` (single isomer, unassigned) [Example 142b], the EC50 was determined as 5.9 µM.

Turning to `O[C@@H]1CC[C@H]1[C@@H]1c2ccccc2-c2cncn21` (single isomer, unassigned) [Example 01f], the 50% effective concentration (EC50) is > 25 µM.

With `OC1COCCC1C1c2cccc(F)c2-c2cncn21` (single isomer, unassigned) [Example 99d], the EC50 was 0.73 µM.

As for `O[C@H]1c2cncn2CC[C@@H]1[C@@H]1c2ccccc2-c2cncn21` [Example 07g, (7R,8R)-7-((R)-5H-imidazo[5,1-a]isoindol-5-yl)-5,6,7,8-tetrahydroimidazo[1,5-a]pyridin-8-ol], the concentration for a half-maximal effect (EC50) is > 25 µM.

Turning to `CS(=O)(=O)N1CCC2(CCC(C3c4ccccc4-c4cncn43)C2O)CC1` (single isomer, unassigned) [Example 180b], the EC50 was > 25 µM.
